Holding throughout (assay type): physicochemical
The nature of series [1]: Color co-ordinates (L*a*b*) of printed samples. To be noted: for neutral black (color co-ordinates): in words. As to the method: (§1) The present invention, as far as it relates to inks, is further illustrated by the following examples using dyes according to our invention described in Tables 1 and 2 and dyes representing the state of the art described in Tables 3 and 4. 100 g of each ink were prepared by heating the necessary amount of dye (3-7 g), glycerol (5 g), tetraethylenglycol (1.1 g). and a biocide solution (Promexal X50, available from Zeneca, Manchester, England) (1.2 g) together with water at a temperature of 50° C. under stirring for one hour. The resulting solution was cooled down to 20° C., pH was adjusted to 7.5 and passed through a Millipore® filter of 0.5 μm pore diameter. The dye quantity was adjusted in a way that the density of the printed images was the same for all dyes.
(§2) 30 g of gelatin with a high isoelectric point (type St 70,810, available from Deutsche Gelatinefabriken, Eberbach, Germany) were dissolved in 360 ml of deionised water. 1 g of a surfactant (Olin 10G, available from Olin Corporation, Norwalk, USA) were added to this solution. Immediately before coating 6.6 g of a solution of 2-(4-dimethyl-carbamoyl-pyridino)-ethanesulfonate (3%) were added and pH was adjusted to 6.5. 100 g/m^2 of this solution was then coated onto a resin coated paper support using a bar coater. The recording medium prepared in this way was dried for 12 hours.
(§3) The inks were then jetted onto this recording medium with an HP560 ink jet printer from Hewlett-Packard. The properties of the printed samples were evaluated later on.
L*a*b*-values were measured on printed samples using a Gretag SPM 100 spectrometer, available from Gretag AG, Regensdorf, Switzerland.
Black dyes show a neutral hue if the values of a* and b*out of the L*a*b* color co-ordinates are zero.

Series [2] in a line: Dye solubility in deionised water. To be noted: for Solubility: deionised water, stirred 1 hour at 50° C., cooled to 20° C., Table 5; for solubility compared with previously known dyes 24 and 26: in words. As to the method: The dye was dispersed in deionised water and this dispersion was stirred for 1 hour at 50° C. Then the mixture was cooled down to 20° C., centrifuged and filtered. Dye solubility was calculated a) from visible spectral data of the filtered solution or b) based on the dried filter residue.

Series [3] is described as follows: Absorption maximum in water. From the text: The absorption maxima and the results of the tests (B) to (D) are listed in Table 6 for the dyes of the invention and in Table 7 for the dyes that are state of the art.
A short description of series [4]: Light fastness of printed samples (density loss after xenon lamp irradiation). The conditions noted are these: for Density loss in %: xenon lamp, total illumination 20 kJoule/cm^2; for light fastness: printed samples, in words. Here is the method: as §1, §2, §3
The printed samples were irradiated in an Atlas Ci35A Weather-O-Meter® with a r 6500 W Xenon lamp until a total illumination of 20 kJoule/cm^2 was reached. The density loss was measured with an X-Rite® densitometer. It is expressed as % loss of initial density.

SMILES strings stand for the structures.

As for `O=S(=O)(O)CCNc1ccc2cc(S(=O)(=O)O)c(N=Nc3ccc(N=Nc4ccc(S(=O)(=O)O)cc4)c4ccc(S(=O)(=O)O)cc34)c(O)c2c1` [Compound 3], in series [1] (Table 6), the “L*a*b*-value: L*” value turned out to be 4.3, the “L*a*b*-value: a*” value came out at 2.5 and the “L*a*b*-value: b*” value was -2.5. Also, in series [2], the Solubility is on record as above 20 g per 100 ml; the “solubility compared with previously known dyes 24 and 26” value is listed as “considerably higher solubility”. Besides, the “HD max in water” value in series [3] (Table 6) stood at 575 nm. Moreover, the “Density loss in %” value in series [4] (Table 6) was 5%.

In the case of `O=S(=O)(O)CCNc1ccc2cc(S(=O)(=O)O)c(N=Nc3ccc(N=Nc4ccc(S(=O)(=O)O)cc4)c4ccc(S(=O)(=O)O)cc34)c(O)c2c1` [Compound 5], in series [1] (Table 6), the “L*a*b*-value: L*” value is 7.3, the “L*a*b*-value: a*” value turned out to be 2.0 and the “L*a*b*-value: b*” value is -2.4. Moreover, the “neutral black (color co-ordinates)” value in series [1] is on record as “neutral blacks”. This compound showed a Solubility in series [2] of 16 g per 100 ml. Further, the “HD max in water” value in series [3] (Table 6) is 576 nm. The light fastness result in series [4] was “excellent light fastness”. Besides, the “Density loss in %” value in series [4] (Table 6) worked out at 6%.

For `O=S(=O)(O)CCNc1ccc2cc(S(=O)(=O)O)c(N=Nc3ccc(N=Nc4ccc(CS(=O)(=O)O)cc4)c4ccc(S(=O)(=O)O)cc34)c(O)c2c1` [Compound 8], in series [1] (Table 6), the “L*a*b*-value: L*” value was determined as 17.3, the “L*a*b*-value: a*” value is 4.0 and the “L*a*b*-value: b*” value is -6.6. Moreover, the “neutral black (color co-ordinates)” value in series [1] was “neutral blacks”. For the same compound, in series [2], the Solubility is above 20 g per 100 ml; the “solubility compared with previously known dyes 24 and 26” value was “considerably higher solubility”. For the same compound, the “HD max in water” value in series [3] (Table 6) was 577 nm. The light fastness result in series [4] is “excellent light fastness”. Also, the “Density loss in %” value in series [4] (Table 6) was 14%.

Turning to `O=C(O)c1cc(N=Nc2ccc(N=Nc3c(S(=O)(=O)O)cc4ccc(NCCS(=O)(=O)O)cc4c3O)c3cc(S(=O)(=O)O)ccc23)cc(C(=O)O)c1` [Compound 16], in series [1] (Table 6), the “L*a*b*-value: L*” value came out at 3.8, the “L*a*b*-value: a*” value was 3.4 and the “L*a*b*-value: b*” value is 0.5. In addition, in series [2], the Solubility was above 20 g per 100 ml; the “solubility compared with previously known dyes 24 and 26” value was “considerably higher solubility”. The “HD max in water” value in series [3] (Table 6) is 580 nm. Moreover, the “Density loss in %” value in series [4] (Table 6) turned out to be 1%.

For the compound `Nc1ccc2cc(S(=O)(=O)O)c(N=Nc3ccc(N=Nc4cc(C(=O)O)cc(C(=O)O)c4)c4ccc(S(=O)(=O)O)cc34)c(O)c2c1` [Compound 24, reference compound], in series [1] (state of the art dyes, Table 7), the “L*a*b*-value: L*” value came out at 27.0, the “L*a*b*-value: a*” value was -0.7 and the “L*a*b*-value: b*” value is -8.8. The compound further had a Solubility in series [2] of 12 g per 100 ml. In series [3] (state of the art dyes, Table 7), the “HD max in water” value stood at 571 nm.

In the case of `O=C(O)CCNc1ccc2cc(S(=O)(=O)O)c(N=Nc3ccc(N=Nc4cccc(C(=O)O)c4)c4ccc(S(=O)(=O)O)cc34)c(O)c2c1` [Compound 26, reference compound], in series [1] (state of the art dyes, Table 7), the “L*a*b*-value: L*” value is 14.7, the “L*a*b*-value: a*” value is on record as 14.4 and the “L*a*b*-value: b*” value is recorded as -14.6. This compound yielded a Solubility in series [2] of 17 g per 100 ml. The “HD max in water” value in series [3] (state of the art dyes, Table 7) is recorded as 568 nm. For the same compound, the “Density loss in %” value in series [4] (state of the art dyes, Table 7) is on record as 8%.
